Test results published in patent US10323007B1, “N2N N4-disubstituted quinazoline-2,4-diamines and uses thereof” (University of South Florida, priority 2016, dated 2019).
≈ marks a conversion by molar mass, not a printed value. Like-named read-outs stand apart in the source and are kept apart here.

Key:
A. baumannii 1646 [1] = assay: murine model of lethal peritonitis; format: in vivo, mice; details: 2 mg kg^-1 intraperitoneal, one hour post challenge, 5 days
Description: As a final assessment, we used a murine model of lethal A. baumannii infection to determine the efficacy of quinazolines in vivo. This was performed using frontrunner 5, which had the most promising properties from all of our biological testing. Accordingly, mice were inoculated with a lethal dose of A. baumannii via intraperitoneal injection on the right side of the abdomen. One hour post challenge, mice were treated with an intraperitoneal injection of 2 mg kg^−1 of frontrunner 5 on the left side of the abdomen. As a control, we also performed similar testing using 30 mg kg^−1 of tigecycline, which we already know our test strain to be susceptible to in vitro.
Characteristics of pre-moribund state include: hunched posture, rapid, shallow and/or labored breathing, ruffled fur, lethargy, failure to respond to stimuli, soiled anogenital area, paralysis, paresis, head tilt, circling, vocalizations, non-purposeful movements, and/or were unable to eat or drink. Those mice reaching this state prior to the completion of the 5-day infection period were euthanized. The number of mice surviving between control and treatment groups was compared and analyzed for statistical significance using a log-rank (Mantel-Cox) test.

[2] = test system: A. baumannii 1649 biofilm; assay: biofilm eradication determination assay, strain 1649; format: cell-based, Acinetobacter baumannii; details: 90% biofilm eradication, Table 8
Description: (§1) These assays were performed as described by us previously,^26,24 as follows. Each of the A. baumannii strains were grown overnight in Mueller Hinton Broth (MHB). The next day these were used to seed fresh MHB to an OD600 of 0.5, with 150 μL then added to the wells of a 96 well plate and grown for 24 hours at 37° C. After 24 hours, the planktonic bacteria were carefully removed and fresh MHB was added with increasing concentrations of lead quinazolines. After incubation at 37° C. for 24 hours, planktonic cells were removed and biofilms were washed three times with phosphate buffered saline (PBS). Biofilms were then resuspended in PBS and plated for cell viability on tryptic soy agar. Biofilm recovery was assessed compared to no drug controls, and determined as percent eradication. This was used to determine MBEC90 values (Minimal Biofilm Eradication Concentration), where the viability of cells within the biofilm was reduced by 90%.

[3] = test system: A. baumannii 1651 biofilm; assay: biofilm eradication determination assay, strain 1651; format: cell-based, Acinetobacter baumannii; details: 90% biofilm eradication, Table 8
Description: as §1

A. baumannii 1652 [4] = assay: minimal bactericidal concentration (MBC) assay, strain 1652; format: cell-based; details: Acinetobacter baumannii, Table 8, read-out: MBC90 1652
From the text: (§2) Lead quinazolines 4, 5, 26, 29, 27, and 30 were selected to be further evaluated for antimicrobial effects. The first assay utilized was a minimal bactericidal concentration (MBC) assay, to assess whether leads compounds were bacteriostatic or bactericidal. The six lead agents were screened to identify their MBC90 towards each of the six A. baumannii isolates used in the SAR studies (Table 8), however for simplicity only the representative data for isolate 1646 is detailed below (Table 6). […] Further to this, we were able to obtain complete eradication of bacterial growth for these two compounds at 1 μM for 24 and 5 μM for 25.
(§3) MIC and MBC assays were performed in this study as documented by us previously.^17,23,24,25 The A. baumannii strains used are detailed in Table 7.

A. baumannii 1652 [5] = assay: MIC assay, strain 1652; format: cell-based, Acinetobacter baumannii; details: strain 1652
Description: as §3

A. baumannii 1651 = assay: MIC assay, strain 1651; format: cell-based, Acinetobacter baumannii; details: strain 1651
Description: as §3

[6] = test system: A. baumannii 1652 biofilm; assay: biofilm eradication determination assay, strain 1652; format: cell-based, Acinetobacter baumannii; details: 90% biofilm eradication, Table 8
Description: as §1

human HepG2 cells = format: cell-based
Description: Cytotoxicity assays were performed using human HepG2 cells (human liver epithelial with hepatocellular carcinoma), as described by us previously.^17,24 Cells were cultured in Dulbecco's modified eagle medium (DMEM), supplemented with 10% fetal bovine serum and 1% penicillin-streptomycin for 3 days at 37° C. and 5% CO2. Cells were then diluted to 1×10^5 ml^−1 using fresh DMEM and added to 96 well tissue culture plates at a volume of 100 μL. Plates were incubated for 24 hours at 37° C. and 5% CO2, allowing the cells to adhere to the plastic. […] Plates were then incubated for 48 hours at 37° C. and 5% CO2. After 48 hours the DMEM was removed and 100 μL of new media was added containing MTT (3-(4, 5-dimethylthiazol-2-yl)-2, 5-diphenyltetrazolium bromide), followed by incubation for four hours at 37° C. and 5% CO2. […] Lead compounds were solvated in 100% DMSO for these studies, which served as the negative control. LD50 values were determined for each compound by comparison to vehicle only controls.

A. baumannii 1646 [7] = assay: minimal bactericidal concentration (MBC) assay, strain 1646; format: cell-based, Acinetobacter baumannii
Outline: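 MBC90 determined against A. baumannii clinical isolates to distinguish bactericidal from bacteriostatic activity, following the group's previously published MIC/MBC protocol.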

A. baumannii 1650 [8] = assay: MIC assay, strain 1650; format: cell-based, Acinetobacter baumannii; details: strain 1650
Description: as §3

A. baumannii strain 1403 = format: cell-based, Acinetobacter baumannii; details: serial passage, 8 days, start 0.5× MIC
Description: An important attribute of novel antibiotics is the ability to fend off the development of resistance towards their effects. To assess this capacity, A. baumannii strains were incubated overnight with 0.5× MIC of each of the frontrunners. The next day cells were washed and used to inoculate fresh media that contained a two-fold increase in drug. This was repeated for a total of 8 days, alongside sulfamethoxazole (SMX) and trimethoprim (TMP) controls, both of which target the same pathway as our lead agents (FIG. 2).
In order to test potential resistance towards the quinazolines, a serial passage assay was performed alongside control compounds (Sulfamethoxazole and Trimethoprim), as described by us previously.^24 A. baumannii strain 1403 was grown overnight in LB media at 37° C. The next day cultures were diluted 1:100 in fresh media and seeded into a 96-well plate. Lead quinazolines or control agents were added to respective wells at half MIC concentrations. […] These were then grown overnight, and the procedure repeated for a total of eight days.

[9] = test system: A. baumannii 1646 biofilm; assay: biofilm eradication determination assay, strain 1646; format: cell-based, Acinetobacter baumannii
Description: as §1

A. baumannii 1650 [10] = assay: minimal bactericidal concentration (MBC) assay, strain 1650; format: cell-based; details: Acinetobacter baumannii, Table 8, read-out: MBC90 1650
From the text: as §2, §3

CNc1nc(NCc2ccccc2)nc2ccc(C)cc12 [Compound 5, N^2-Benzyl-N^4,6-dimethylquinazoline-2,4-diamine]
survival rate of infected animals (A. baumannii 1646 [1]): 83%
MBEC90 1649 [2]: 34 µM
MBEC90 1651 [3]: 11 µM
MBC (A. baumannii 1652 [4]): 12 µM (≈ 3.34 µg/mL)
MIC (A. baumannii 1652 [5]; Acinetobacter baumannii, Table 2, read-out: 1652 MIC): 20 µM (≈ 5.57 µg/mL)
MIC (A. baumannii 1652 [5]; Acinetobacter baumannii, lead quinazolines, Table 8, read-out: MIC 1652): 20 µM (≈ 5.57 µg/mL)
MIC (A. baumannii 1652 [5]; Tables 1, 3, 4, 5 and footnotes, read-out: 1652 MIC): 20 µM (≈ 5.57 µg/mL)
MIC (A. baumannii 1651; Acinetobacter baumannii, Table 2, read-out: 1651 MIC): 10 µM (≈ 2.78 µg/mL)
MIC (A. baumannii 1651; Acinetobacter baumannii, lead quinazolines, Table 8, read-out: MIC 1651): 1 µM (≈ 0.278 µg/mL)
MIC (A. baumannii 1651; Tables 1, 3, 4, 5 and footnotes, read-out: 1651 MIC): 10 µM (≈ 2.78 µg/mL)
MBEC90 1652 [6]: 68 µM
HepG2 cell viability (human HepG2 cells; at 25 μM (highest concentration tested)): 44%
LD50(HepG2) (human HepG2 cells; human, 48 h): 22 µM
MBC (A. baumannii 1646 [7]; Acinetobacter baumannii, 1646, strain 1646, Table 8 and text, read-out: MBC90 1646): 0.77 µM (≈ 0.214 µg/mL)
MBC (A. baumannii 1646 [7]; Acinetobacter baumannii, Table 6, representative data for isolate 1646, read-out: MBC90): 0.8 µM (≈ 0.223 µg/mL)
MIC (A. baumannii 1650 [8]; Acinetobacter baumannii, Table 2, read-out: 1650 MIC): 50 µM (≈ 13.9 µg/mL)
MIC (A. baumannii 1650 [8]; Acinetobacter baumannii, lead quinazolines, Table 8, read-out: MIC 1650): 35 µM (≈ 9.74 µg/mL)
MIC (A. baumannii 1650 [8]; Tables 1, 3, 4, 5 and footnotes, read-out: 1650 MIC): 50 µM (≈ 13.9 µg/mL)
increase in MIC over the 8-day test period (A. baumannii strain 1403): 4 fold
MBEC90 ([9]; Table 6, representative data for isolate 1646): 2.8 µM
reduction in biofilm viability ([9]; at 10 μM, strain 1646): 3 log
MBEC90 1646 ([9]; strain 1646, 90% biofilm eradication, Table 8 and text): 2.8 µM
MBC (A. baumannii 1650 [10]): 27 µM (≈ 7.52 µg/mL)
